pKi: −log10 of the molar value.
What was measured:
[1] = target: Sodium-dependent dopamine transporter (Rattus norvegicus, UniProt P23977); assay: Inhibition of [3H]DA uptake at Dopamine transporter into rat nerve endings (synaptosomes); format: subcellular, Brain
[2] = target: Norepinephrine transporter (Rattus norvegicus, UniProt Q9WTR4); assay: Inhibition of norepinephrine transporter by inhibition of [3H]NE uptake into rat nerve endings (synaptosomes); format: subcellular, Brain
[3] = target: Sodium-dependent serotonin transporter (Rattus norvegicus, UniProt P31652); assay: Inhibition of [3H]5-HT uptake into rat synaptosomes by Serotonin transporter; format: functional, subcellular, Brain
Sodium-dependent serotonin transporter, sequence (P31652 whole entry): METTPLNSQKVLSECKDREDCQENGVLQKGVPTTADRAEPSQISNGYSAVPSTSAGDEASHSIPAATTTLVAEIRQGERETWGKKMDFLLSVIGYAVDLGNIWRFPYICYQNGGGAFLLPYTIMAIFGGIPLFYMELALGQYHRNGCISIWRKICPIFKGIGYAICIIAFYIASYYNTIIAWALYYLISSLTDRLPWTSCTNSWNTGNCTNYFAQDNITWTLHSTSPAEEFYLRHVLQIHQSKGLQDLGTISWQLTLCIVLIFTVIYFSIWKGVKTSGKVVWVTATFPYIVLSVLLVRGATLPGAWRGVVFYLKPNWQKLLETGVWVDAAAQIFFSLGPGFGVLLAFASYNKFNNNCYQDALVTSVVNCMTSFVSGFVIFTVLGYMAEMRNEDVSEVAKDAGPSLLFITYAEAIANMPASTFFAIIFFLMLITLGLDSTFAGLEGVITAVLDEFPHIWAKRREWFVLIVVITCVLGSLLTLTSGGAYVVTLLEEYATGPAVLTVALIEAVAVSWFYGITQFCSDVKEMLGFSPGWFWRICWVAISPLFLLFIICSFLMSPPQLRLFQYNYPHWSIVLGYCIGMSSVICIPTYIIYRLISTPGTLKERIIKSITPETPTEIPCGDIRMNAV

[4] = target: Monoamine transporters; serotonin & dopamine (Rattus norvegicus) (UniProt P31652+P23977); assay: Ratio of selective inhibition of dopamine(DA) to serotonin(5-HT) was evaluated; format: protein assay
Monoamine transporters; serotonin & dopamine (Rattus norvegicus), sequence (P23977 whole entry, looked up): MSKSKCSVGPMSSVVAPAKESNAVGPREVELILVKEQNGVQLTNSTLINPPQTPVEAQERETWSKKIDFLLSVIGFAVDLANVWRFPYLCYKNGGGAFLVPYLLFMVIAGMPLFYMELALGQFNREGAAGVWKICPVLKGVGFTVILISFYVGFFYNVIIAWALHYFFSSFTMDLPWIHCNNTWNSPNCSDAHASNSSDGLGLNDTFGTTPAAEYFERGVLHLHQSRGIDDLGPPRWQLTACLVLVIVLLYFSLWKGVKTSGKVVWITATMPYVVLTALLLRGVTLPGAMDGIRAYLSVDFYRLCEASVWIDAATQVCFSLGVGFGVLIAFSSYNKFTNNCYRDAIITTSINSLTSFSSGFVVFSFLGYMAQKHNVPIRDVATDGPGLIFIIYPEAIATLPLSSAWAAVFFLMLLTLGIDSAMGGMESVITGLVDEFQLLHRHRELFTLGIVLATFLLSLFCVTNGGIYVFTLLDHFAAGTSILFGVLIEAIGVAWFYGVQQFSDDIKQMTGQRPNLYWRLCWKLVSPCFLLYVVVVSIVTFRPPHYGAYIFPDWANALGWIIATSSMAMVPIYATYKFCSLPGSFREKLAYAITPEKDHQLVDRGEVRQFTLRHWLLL
Monoamine transporters; serotonin & dopamine (Rattus norvegicus), sequence (P31652 whole entry, looked up): as the sequence (P31652 whole entry) above

Sodium-dependent dopamine transporter, sequence (P23977 whole entry): as the sequence (P23977 whole entry, looked up) above
Norepinephrine transporter, sequence (Q9WTR4 whole entry): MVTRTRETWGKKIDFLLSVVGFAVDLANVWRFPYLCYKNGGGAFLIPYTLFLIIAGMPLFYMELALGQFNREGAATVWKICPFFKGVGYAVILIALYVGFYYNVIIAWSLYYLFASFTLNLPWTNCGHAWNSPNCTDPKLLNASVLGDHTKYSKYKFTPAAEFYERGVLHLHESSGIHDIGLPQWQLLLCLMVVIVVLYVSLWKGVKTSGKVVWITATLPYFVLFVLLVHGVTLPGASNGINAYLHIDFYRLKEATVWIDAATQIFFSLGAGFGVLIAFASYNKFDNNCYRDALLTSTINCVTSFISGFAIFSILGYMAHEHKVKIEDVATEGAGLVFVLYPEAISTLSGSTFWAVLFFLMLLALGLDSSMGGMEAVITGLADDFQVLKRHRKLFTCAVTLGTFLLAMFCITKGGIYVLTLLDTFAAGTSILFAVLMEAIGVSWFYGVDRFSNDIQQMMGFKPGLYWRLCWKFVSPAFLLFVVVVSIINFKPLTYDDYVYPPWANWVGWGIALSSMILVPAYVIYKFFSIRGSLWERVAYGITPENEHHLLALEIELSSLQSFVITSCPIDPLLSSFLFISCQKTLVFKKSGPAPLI

| Compound | pKi [1] | pKi [2] | pKi [3] | Ratio [4] |
| --- | --- | --- | --- | --- |
| Cc1ccc(C(=O)NCc2ccc(CNC(=O)[C@@H]3CN(C)CC[C@H]3c3ccc(Cl)cc3)cc2)cc1 | < 5.15 | < 6.00 | 6.71 | > 36 |
| COc1ccc(C(=O)NCc2ccc(CNC(=O)[C@@H]3CN(C)CC[C@H]3c3ccc(Cl)cc3)cc2)cc1 | – | – | 7.04 | – |
| CN1CC[C@@H](c2ccc(Cl)cc2)[C@H](C(=O)NCc2ccc(CNC(=O)/C=C/c3ccc(Cl)cc3)cc2)C1 | < 5.70 | < 5.70 | 7.16 | > 29 |
| CN1CC[C@@H](c2ccc(Cl)cc2)[C@H](C(=O)NCc2ccc(CNC(=O)c3cccc(Cl)c3)cc2)C1 | < 5.40 | 5.98 | 7.48 | > 121 |
| CN1CC[C@@H](c2ccc(Cl)cc2)[C@H](C(=O)NCCCCCNC(=O)[C@@H]2CN(C)CC[C@H]2c2ccc(Cl)cc2)C1 | 5.71 | 6.40 | 8.92 | 1630 |
| CN1CC[C@@H](c2ccc(Cl)cc2)[C@H](C(=O)NCc2ccc(CNC(=O)[C@@H]3CN(C)CC[C@H]3c3ccc(Cl)cc3)cc2)C1 | 5.64 | 7.13 | 9.49 | > 7000 |
| CN1CC[C@@H](c2ccc(Cl)cc2)[C@H](C(=O)NCc2ccc(CNC(=O)c3ccccc3)cc2)C1 | – | – | 7.52 | – |
| CN1CC[C@@H](c2ccc(Cl)cc2)[C@H](C(=O)NCc2ccc(CNC(=O)c3ccc(C(F)(F)F)cc3)cc2)C1 | < 5.40 | 6.19 | 6.48 | > 12 |
| CN1CC[C@@H](c2ccc(Cl)cc2)[C@H](C(=O)NCc2ccc(CNC(=O)CCc3ccccc3)cc2)C1 | < 5.70 | < 6.00 | 7.17 | > 30 |
| CN1CC[C@@H](c2ccc(Cl)cc2)[C@H](C(=O)NCc2ccc(CNC(=O)c3ccc(Cl)cc3)cc2)C1 | 5.43 | 5.81 | 7.08 | 44 |
| CN1CC[C@@H](c2ccc(Cl)cc2)[C@H](C(=O)NCc2ccc(CNC(=O)c3cccc(C(F)(F)F)c3)cc2)C1 | < 5.30 | 6.29 | 7.46 | > 143 |
| CN1CC[C@@H](c2ccc(Cl)cc2)[C@H](C(=O)NCc2ccc(CNC(=O)c3ccc(Cl)cc3Cl)cc2)C1 | – | – | 6.86 | – |
